{"source": "paper PMC7701285", "about": "“A Strain-Specific Inhibitor of Receptor-Bound HIV-1 Targets a Pocket near the Fusion Peptide” (Cell Reports, 2020)", "target": "B41 SOSIP.664 pseudotype parent; B41 (9032_08_A1) HIV-1 Env on pseudotyped virus (Human immunodeficiency virus 1, UniProt B3UES2)", "experiment": "TZM-bl pseudovirus neutralization, luciferase", "assay_type": "cell-based", "conditions": "average, 1 h preincubation at 37°C, 1% DMSO, 48 h, entry read-out", "data": [{"molecule": "Cc1ccc(-c2ccc(NC(=O)N3CCC4(CCO4)CC3)cc2)cc1", "note": "[GO52]", "values": [{"measurement": "IC50", "value": 1.6, "unit": "µM"}]}]}
